Test results: the supplement of paper PMC5579334

Experiments:
[1] = test system: ST8814; assay: relative IC50 (inflection point of fitted dose-response curve, CellTox-Green cytotoxicity, 72 h; top asymptote may be below 50%); higher = less potent
How it was run: (§1)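 For 72 h at 37 °C, MPNST cell lines and primary human Schwann cells were exposed in 384-well plates to five 10-fold compound dilutions. CellTox-Green, added before seeding at a final 1:1000 dilution, gave fluorescence from DNA released by disrupted cells. Signals were scaled to vehicle and positive-control wells, cultures failing plate quality control were left out, and four-parameter logistic fits were applied. Relative IC50 and drug sensitivity score were derived from the fits, with IC50 censored at the top concentration.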

[2] = test system: STS26T; assay: as above
How it was run: as §1

[3] = test system: HSC2; assay: as above
How it was run: as §1

[4] = test system: HSC1; assay: as above
How it was run: as §1

[5] = test system: S1507-2; assay: as above
How it was run: as §1

[6] = test system: ST8814; assay: relative IC50 (inflection point of fitted dose-response curve, CellTiter-Glo viability, 72 h; top asymptote may be below 50% inhibition); higher = less potent
How it was run: (§2)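 MPNST cell lines and primary human Schwann cells were seeded at 750–1000 cells per well into 384-well plates preprinted with each compound at five concentrations in 10-fold steps, then incubated 72 h at 37 °C, 5% CO2. CellTiter-Glo ATP luminescence gave viability, scaled between vehicle and positive-control wells, with duplicates averaged where present. Curves were fitted with a four-parameter logistic model. Percent inhibition refers to the top concentration, while drug sensitivity score and relative IC50, censored at the top concentration, come from these fits.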

[7] = test system: HS-Sch-2; assay: as above
How it was run: as §2

[8] = test system: STS26T; assay: as above
How it was run: as §2

[9] = test system: YST-1; assay: as above
How it was run: as §2

[10] = test system: S462; assay: as above
How it was run: as §2

[11] = test system: HSC2; assay: as above
How it was run: as §2

[12] = test system: HSC1; assay: as above
How it was run: as §2

[13] = test system: HS-PSS; assay: as above
How it was run: as §2

[14] = test system: S1507-2; assay: as above
How it was run: as §2

[15] = test system: HS-PSS; assay: relative IC50 (inflection point of fitted dose-response curve, CellTox-Green cytotoxicity, 72 h; top asymptote may be below 50%); higher = less potent
How it was run: as §1

Compound | relative IC50 [1] [nM] | relative IC50 [2] [nM] | relative IC50 [3] [nM] | relative IC50 [4] [nM] | relative IC50 [5] [nM] | relative IC50 [6] [nM] | relative IC50 [7] [nM] | relative IC50 [8] [nM] | relative IC50 [9] [nM] | relative IC50 [10] [nM] | relative IC50 [11] [nM] | relative IC50 [12] [nM] | relative IC50 [13] [nM] | relative IC50 [14] [nM] | relative IC50 [15] [nM]
COc1ccc(-c2cc3c(C)nc(N)nc3n([C@H]3CC[C@H](OCCO)CC3)c2=O)cn1 | 1520 | 350 | 2710 | 501 | 1630 | 209 | 476 | 124 | 57.8 | 196 | 270 | 197 | 404 | 89 | 
C[C@@]1(C(=O)Nc2ccc(F)nc2)CCCN1c1nc(Nc2cc(C3CC3)n[nH]2)c2cccn2n1 | 312 | 279 | 1400 | 2360 | 1650 | 534 | 1150 | 663 | 18.2 | 307 | 308 | 441 | 1650 | 495 | 3330
NC(=O)Nc1cc(-c2cccc(F)c2)sc1C(=O)N[C@H]1CCCNC1 [AZD7762] | 243 | 135 | 266 | 313 | 57.1 | 149 | 67 | 139 | 313 | 54.7 | 310 | 161 | 207 | 63.1 | 
CC[C@@H]1C(=O)N(C)c2cnc(Nc3ccc(C(=O)NC4CCN(C)CC4)cc3OC)nc2N1C1CCCC1 [BI 2536] | 4.57 | 2.27 | 21.5 | 22.3 | 10.6 | 9.3 | 3.28 | 3.49 | 3.54 | 4.92 | 22.6 | 27.1 | 7.64 | 11.9 | 
Cn1c(CCCC(=O)O)nc2cc(N(CCCl)CCCl)ccc21 [Bendamustine] | > 10000 | > 10000 | > 10000 | > 10000 | > 10000 | > 10000 | > 10000 | > 10000 |  | > 10000 | > 10000 | > 10000 | > 10000 | > 10000 | > 10000
CS(=O)(=O)OCCCCOS(C)(=O)=O [Busulfan] | > 100000 | > 100000 | > 100000 | > 100000 | > 100000 | > 100000 |  | > 100000 |  | > 100000 | > 100000 | > 100000 | > 100000 | > 100000 | > 100000
Cn1c(=O)n(-c2ccc(C(C)(C)C#N)cc2)c2c3cc(-c4cnc5ccccc5c4)ccc3ncc21 [Dactolisib] | > 1000 | > 1000 | > 1000 | > 1000 | > 1000 | 15.3 | 12.1 | 7.77 | 11.9 | 14.8 | 8.32 | 8.56 | 15.7 | 11 | 
CC(=O)O[C@@]12CO[C@@H]1C[C@H](O)[C@@]1(C)C(=O)[C@H](O)C3=C(C)[C@@H](OC(=O)[C@H](O)[C@@H](NC(=O)OC(C)(C)C)c4ccccc4)C[C@@](O)([C@@H](OC(=O)c4ccccc4)[C@H]21)C3(C)C [Docetaxel] | 4.62 | 1.15 | 8.43 | 6.11 | 6.13 | 3.95 | 2.11 | 1.07 | 1.02 | 0.759 | 4.15 | 3.08 | 3.86 | 8.6 | 
Cc1cc(Nc2cc(CN3CCOCC3)c3nc(C)c(Cc4ccc(Cl)cc4F)n3n2)n[nH]1 [Gandotinib] | 2770 | 1700 | 2250 | 1990 | 2400 | 1730 | 1550 | 718 | 1170 | 862 | 1090 | 1270 | 1000 | 1200 | 
C=CC(=O)N1CCC[C@@H](n2nc(-c3ccc(Oc4ccccc4)cc3)c3c(N)ncnc32)C1 [Ibrutinib] | > 1000 | > 1000 | > 1000 | > 1000 | > 1000 | > 1000 | > 1000 | > 1000 | > 1000 | > 1000 | > 1000 | > 1000 |  | > 1000 | > 1000
CC(C)Cn1cnc2c(N)nc3ccccc3c21 [Imiquimod] | > 2500 | > 2500 | > 2500 | > 2500 | > 2500 | > 2500 |  | > 2500 | > 2500 | > 2500 | > 2500 | > 2500 |  | > 2500 | > 2500
O=C(Nc1ccncc1)C(=O)c1cn(Cc2ccc(Cl)cc2)c2ccccc12 [Indibulin] | 430 | 146 | 1580 | 2000 | 494 | 312 | 739 | 164 | 530 | 334 | 718 | 361 |  | 241 | > 10000
N#Cc1ccc(C(c2ccc(C#N)cc2)n2cncn2)cc1 [Letrozole] | > 10000 | > 10000 | > 10000 | > 10000 | > 10000 | > 10000 |  | > 10000 | > 10000 | > 10000 | > 10000 | > 10000 |  | > 10000 | > 10000
